The IC50 is the midpoint of a concentration-inhibition curve. The low end stands for greater potency, the high end for weaker potency.

The experiment addresses T1, human DGAT2 (hDGAT2) (Homo sapiens, UniProt Q96PD7).
T1 construct: made in house; host or cells: Sf-9 insect cells (baculovirus infection); membrane fraction
T1 sequence (Q96PD7 1-388): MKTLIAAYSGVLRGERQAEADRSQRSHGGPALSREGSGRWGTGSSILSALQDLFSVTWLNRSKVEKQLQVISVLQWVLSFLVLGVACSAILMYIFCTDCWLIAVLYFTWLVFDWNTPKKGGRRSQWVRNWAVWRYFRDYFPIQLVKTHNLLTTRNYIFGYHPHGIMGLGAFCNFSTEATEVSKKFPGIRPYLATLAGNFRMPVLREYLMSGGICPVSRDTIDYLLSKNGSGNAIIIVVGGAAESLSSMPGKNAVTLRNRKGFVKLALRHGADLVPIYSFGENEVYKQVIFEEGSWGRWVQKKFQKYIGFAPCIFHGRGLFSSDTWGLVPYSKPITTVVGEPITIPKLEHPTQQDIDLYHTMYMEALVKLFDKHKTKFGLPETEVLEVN
Kind of experiment: DGAT2 enzymatic activity assay (LC/MS/MS detection of 13C18-triolein, Sf-9 membrane prep). Particulars: hDGAT2 Sf-9 membrane, 25 μM diolein, 5 μM 13C oleoyl-CoA, rt. The experiment is classed as biochemical. The method in brief:
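Membranes from baculovirus-infected Sf-9 cells expressing untagged human DGAT2 (8 ng/μL), with 25 μM diolein and 5 μM 13C oleoyl-CoA in 100 mM Tris pH 7.0, 20 mM MgCl2, 5% ethanol at rt. 13C18-triolein product quantified by LC/MS/MS against 13C21-triolein internal standard; IC50 by 4-parameter fit.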

In turn, `CC1(NC(=O)c2cnc3c(c2)c(C(C)(C)O)nn3-c2cc(OCC(F)F)ncc2F)CS(=O)(=O)C1` [Example 45, 1-(2-(2,2-difluoroethoxy)-5-fluoropyridin-4-yl)-3-(2-hydroxypropan-2-yl)-N-(3-methyl-1,1-dioxidothietan-3-yl)-1H-pyrazolo[3,4-b]pyridine-5-carboxamide] registered a 50% inhibitory concentration (IC50) of 13 nM.

For the origin of these results see patent US20230174521A1, “NOVEL DIACYLGLYCERIDE O-ACYLTRANSFERASE 2 INHIBITORS” (Merck Sharp & Dohme LLC, priority 2020, published 2023).
